Assay results: patent US9097673B2, “Processes and kits for determining multi-drug resistance of cells” (ENZO LIFE SCIENCES, INC., priority 2010, dated 2015)

How the values were obtained:
Hep G2 cells = experiment: Dye uptake flow cytometry MDR assay; type: cell-based, human; design: key: Kolmogorov-Smirnov D statistic comparing fluorescence distributions; settings: HepG2, dye uptake
Procedure: (§1) Cells were grown on tissue culture dishes and on the day of assay were trypsinized and washed twice with warm (37° C.) phosphate-buffered saline (PBS). Post-wash, the cells were re-suspended in warm phenol red indicator-free medium at a density of 1×10^6/ml. For each detection set, sixteen tubes (5 samples in triplicates plus non-stained control for background fluorescence) in numbered tubes each containing 5×10^5/cells (0.5 ml) were prepared. […] After incubation for 5 min at 37° C., 0.25 ml of warm medium with Fluo-8™ AM probe (5 μM final concentration) or Rhod-4™ AM probe (2 μM final concentration) was added to each tube excluding non-stained control that receives plain medium and cells were incubated for 30 min at 37° C. and analyzed immediately by flow cytometry. In the second set of the tubes, the reaction was stopped by rapid centrifugation (1 min) at relatively low speed (200×g). After wash with ice-cold PBS and discarding the supernatant, cells were re-suspended in 0.5 ml of ice-cold medium and kept on ice until flow cytometry analysis. The third set of cells simply was spun down (1 min, 200×g) to remove the excess of the probe, resuspended in ice-cold medium and kept on ice until flow cytometry analysis.
(§2) Flow cytometry experiments were performed using a FACS Calibur benchtop flow cytometer (BD Biosciences) equipped with a blue (488 nm) laser, and the signals were registered in the FITC (530/30 filter), PE (585/42 filter) and PerCP (670 LP filter) channels. Fluo-8™ dye fluorescence was measured in the FL1 channel, and Rhod-4™ dye fluorescence—in the FL2 channel. Flow cytometry data were analyzed by comparison of median fluorescence or using Kolmogorov-Smirnov statistics [Young, J Histochem Cytochem 25:935-941 (1977)] or by calculating MAF values (MDR Activity Factor) using the following formula: MAF=100*((MFIinh−MFI0)/MFIinh), where MFIinh and MFI0 are mean fluorescence intensity values measured in the presence and absence of inhibitor [Hollo et al., Biochem Piophys Acta. 1191:384-388 (1994)].
(§3) Both human ileocecal colorectal carcinoma cell line HCT-8 (reported to over-express P-gp and, to a lesser extent, MRP [Hunter et al., Br J Cancer. 64:437-444 (1991); Collington et al., Biochem Pharmacol 44:417-424 (1992)] and hepatocellular carcinoma Hep G2 (reported to over-express MRP [Roelofsen et al., Gastroenterology 112:511-521 (1997), Cantz et al., Am J Physiol Gastrointest Liver Physiol. 278:G522-G531 (2000)] were obtained from ATCC. HCT-8 cells were routinely cultured in RPMI-1640 Medium with 2 mM L-glutamine, 10 mM HEPES, 1 mM sodium piruvate, 4.5 g/L glucose, 1.5 g/L sodium bicarbonate (ATCC), supplemented with 10% horse serum (ATCC) and 100 U/ml penicillin, 100 ug/ml streptomycin (Sigma-Aldrich, St. Louis, Mo.). Hep G2 cells were routinely cultured in Eagle's Minimum Essential Medium with low glucose (ATCC), supplemented with 10% heat inactivated fetal bovine serum (ATCC) and 100 U/ml penicillin, 100 ug/ml streptomycin (Sigma-Aldrich, St. Louis, Mo.). Cell cultures were maintained in a humidified incubator at 37° C., with 5% CO2 atmosphere. Stock solutions of the probes and inhibitors were prepared, as described in Examples 2 and 3. Cells were grown in tissue culture dishes and on the day of assay were treated according to a dye uptake protocol and analyzed by flow cytometry, as described in Example 3.

HCT-8 cells = experiment: Dye uptake flow cytometry MDR assay; type: cell-based, human; design: key: Kolmogorov-Smirnov D statistic comparing fluorescence distributions; settings: HCT-8, dye uptake
Procedure: as §1, §2, §3

A549 cell line [1] = experiment: Dye uptake flow cytometry MDR assay; type: cell-based, human; settings: A549, dye uptake
Procedure: (§10) Concentrations of the modulators used in the experiments were non-toxic to the cells (based upon standard 3-(4,5-Dimethylthiazol-2-Yl)-2,5-Diphenyltetrazolium Bromide (MTT) testing, data not shown). Fluo-8™ was used in all experiments at 5 μM, and Rhod-4™—at 4 μM final concentrations.

HeLa cell line [2] = experiment: Dye uptake flow cytometry MDR assay; type: cell-based, human; settings: HeLa, dye uptake
Procedure: as §10

CHO K1 cell line [3] = experiment: Dye uptake flow cytometry MDR assay; type: cell-based, hamster; settings: CHO K1, dye uptake;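 also: flow cytometry of dye-loaded cells, Kolmogorov-Smirnov D value (0 to 1.0) comparing fluorescence with versus without inhibitor, made negative when the uninhibited control was brighter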
Procedure: as §10

A549 cell line [4] = experiment: Dye efflux flow cytometry MDR assay; type: cell-based, human; design: key to D-value, Verapamil / D-value, Novobiocin: KS D value, 0 to 1; negative if control brighter than sample; settings: A549, dye efflux
Excerpt: (§4) Kolmogorov-Smirnov statistics measures the difference between two distribution functions and generates a D value ranging between 0 and 1.0, with higher values indicating a greater difference between the distribution functions. The D value generated by the KS statistics was modified by ascribing a negative value if the fluorescence of a negative control (no inhibitor) was brighter than the fluorescence of the sample with inhibitor. The method was one of those recommended by the First International MDR1 Methods Detection Workshop (St. Jude Children's Research Hospital, Memphis, Tenn.).
(§5) Cells were grown in tissue culture dishes and on the day of assay they were trypsinized and washed twice with ice-cold PBS. Post-wash, the cells were re-suspended in cold phenol red indicator-free medium at a density of 1×10^6/ml. For each detection set, eighteen tubes (6 tubes without inhibitor and 3 tubes for each inhibitor tested, in triplicates) each containing 2.5-5×10^5/cells were prepared. Cells were centrifuged at 200×g for 5 min, and after discarding supernatant, re-suspended at 1×10^6/ml in ice-cold indicator-free medium containing Fluo-8™ AM or Rhod-4™ AM probes. Additionally, an aliquot of non-stained cells was prepared for background fluorescence measurements. Cells were incubated with the probe(s) on ice for 60 min, than centrifuged at 200×g for 5 min. After discarding the supernatant, cells were either washed twice with PBS or simply were spun down to remove the excess of the probe and resuspended at 5×10^5 cells/sample in 0.5 ml of following solutions:
(§6) 1. warm (37° C.) indicator-free medium containing vehicle only (3 tubes)
(§7) 2. warm (37° C.) indicator-free medium containing inhibitor (3 tubes for each inhibitor tested)
(§8) 3. ice-cold indicator-free medium (3 tubes)
(§9) Tube sets 1 and 2 were immediately transferred to a water bath (37° C.) and incubated for 90 min. Tube set 3 was kept on ice. Post incubation, 4 ml of ice-cold indicator-free medium was added per tube, tubes were centrifuged at 200×g for 5 min, supernatant was discarded, and cell pellet was re-suspended in the cold indicator-free medium and centrifuged again. Finally, cells were re-suspended in 0.5 ml of cold indicator-free medium and maintained on ice until analysis. Alternatively, cells were analyzed without washing. Flow cytometry experiments were performed as described in Example 3.

HeLa cell line [5] = experiment: Dye efflux flow cytometry MDR assay; type: cell-based, human; design: key to D-value, Verapamil / D-value, Novobiocin: KS D value, 0 to 1; negative if control brighter than sample
Excerpt: as §4, §5, §6, §7, §8, §9

CHO K1 cell line [6] = experiment: Dye efflux flow cytometry MDR assay; type: cell-based, hamster; design: key to D-value, Verapamil / D-value, Novobiocin: KS D value, 0 to 1; negative if control brighter than sample; settings: CHO K1, dye efflux
Excerpt: as §4, §5, §6, §7, §8, §9

[7] = average of three representative experiments (Table 6)
[8] = representative experiment (Table 8)
[9] = kept on ice without inhibitor (Table 9)
[10] = representative experiment (Table 9)

For CC(=O)OCOC(=O)CN(CC(=O)OCOC(C)=O)Cc1cc2c(cc1OC(C)=O)Oc1cc(OC(C)=O)c(CN(CC(=O)OCOC(C)=O)CC(=O)OCOC(C)=O)cc1C21OC(=O)c2ccccc21 [Calcein AM], the “D-value, CyclosporinA” value (Hep G2 cells) was 0.29, the “D-value, MK-571” value (Hep G2 cells) was 0.29 and the “D-value, Novobiocin” value (Hep G2 cells) was 0.02. For the same compound, the “D-value, Verapamil” value (Hep G2 cells) was 0.13, the “D-value, CyclosporinA” value (HCT-8 cells) was 0.31 and the “D-value, MK-571” value (HCT-8 cells) was 0.16. For the same compound, the “D-value, Novobiocin” value (HCT-8 cells) was 0.44, the “D-value, Verapamil” value (HCT-8 cells) was 0.71 and the “D-value, Fumitremorgan C” value (A549 cell line [1]; [7]) was 0.04. For the same compound, the “D-value, Probenecid” value (A549 cell line [1]; [7]) was 0.36, the “D-value, Verapamil” value (A549 cell line [1]; [7]) was 0.17 and the “D-value, Cyclosporine A” value (A549 cell line [1]; [8]) was 0.47. The “D-value, Novobiocin” value (A549 cell line [1]; [8]) was 0.03, the “D-value, Probenecid” value (A549 cell line [1]; [8]) was 0.27 and the “D-value, Verapamil” value (A549 cell line [1]; [8]) was 0.15. For the same compound, the “D-value, Fumitremorgan C” value (HeLa cell line [2]; [7]) was 0.03, the “D-value, Probenecid” value (HeLa cell line [2]; [7]) was 0.06 and the “D-value, Verapamil” value (HeLa cell line [2]; [7]) was 0.17. For the same compound, the “D-value, Cyclosporine A” value (HeLa cell line [2]; [8]) was 0.14, the “D-value, Novobiocin” value (HeLa cell line [2]; [8]) was 0.09 and the “D-value, Probenecid” value (HeLa cell line [2]; [8]) was 0.09. The “D-value, Verapamil” value (HeLa cell line [2]; [8]) was 0.13, the “D-value, Fumitremorgan C” value (CHO K1 cell line [3]; [7]) was 0.17 and the “D-value, Probenecid” value (CHO K1 cell line [3]; [7]) was 0.77. For the same compound, the “D-value, Verapamil” value (CHO K1 cell line [3]; [7]) was 0.74, the “D-value, Cyclosporine A” value (CHO K1 cell line [3]; [8]) was 0.96 and the “D-value, Novobiocin” value (CHO K1 cell line [3]; [8]) was 0.06. For the same compound, the “D-value, Probenecid” value (CHO K1 cell line [3]; [8]) was 0.70, the “D-value, Verapamil” value (CHO K1 cell line [3]; [8]) was 0.93 and the “D-value, 4° C.” value (A549 cell line [4]; [9]) was 0.50. The “D-value, Cyclosporine A” value (A549 cell line [4]; [10]) was 0.35, the “D-value, Novobiocin” value (A549 cell line [4]; [10]) was 0.15 and the “D-value, Probenecid” value (A549 cell line [4]; [10]) was 0.40. The “D-value, Verapamil” value (A549 cell line [4]; [10]) was 0.03, the “D-value, 4° C.” value (HeLa cell line [5]; [9]) was 0.07 and the “D-value, Cyclosporine A” value (HeLa cell line [5]; [10]) was 0.08. For the same compound, the “D-value, Novobiocin” value (HeLa cell line [5]; [10]) was 0.04, the “D-value, Probenecid” value (HeLa cell line [5]; [10]) was 0.62 and the “D-value, Verapamil” value (HeLa cell line [5]; [10]) was 0.1. The “D-value, 4° C.” value (CHO K1 cell line [6]; [9]) was 0.65, the “D-value, Cyclosporine A” value (CHO K1 cell line [6]; [10]) was 0.31 and the “D-value, Novobiocin” value (CHO K1 cell line [6]; [10]) was 0.13. For the same compound, the “D-value, Probenecid” value (CHO K1 cell line [6]; [10]) was 0.47 and the “D-value, Verapamil” value (CHO K1 cell line [6]; [10]) was 0.26.
